Data on one molecule can be found in US20100184869A1, “METHOD AND KIT FOR DETERMINING SIRTUIN MODULATING AGENTS, SIRTUIN MODULATING PROCEDURE, SIRTUIN MODULATING COMPOUNDS AND COMPOSITIONS INCLUDING THE SAME” (priority 2008, published 2010).

For this experiment, the system named is SIRT1 gene expression. In words: semi-quantitative RT-PCR of sirtuin mRNA/β-actin mRNA ratio in zebrafish tissues after resveratrol. The experiment is classed as in vivo, zebrafish (Danio rerio). The settings on record: FIG. 3. An excerpt: On the Y axis, I is the rate of mRNA X, a is muscle and b is liver.
The method for determining modulating agents of sirtuin gene expression is comprised of the following stages: • a) contacting cells comprising at least on gene of the sirtuin family and the β-actin gene, with a modulating agent; • b) determining the relative abundance of mRNA of the sirtuin-family gene; • c) determining the relative abundance of the mRNA of the β-actin gene; and • d) determining the mRNA SIRTImRNA β-actin ratio.
The mapping of the pattern and levels of expression in each one of the eight genes related to zebrafish sirtuin was determined in eight tissues (spleen, gills, brain, heart, liver, female sexual organs and male sexual organs, skeletal muscle and kidneys), by way of the analysis of semi-quantitative RT-PCR comparing the relative abundance of mRNA of each one of the genes related to sirtuins with the mRNA of the gene codifying for β-actin (mean ±E.P.) (FIG. 2 and Table 2).

Regarding `Oc1ccc(/C=C/c2cc(O)cc(O)c2)cc1` [resveratrol, 3.4′,5-trihydroxy-trans-stilbene], the “SIRT1 gene expression (mRNA SIRT/mRNA β-actin ratio)” value was “significant increase” (zebrafish liver) and “significant increase” (zebrafish skeletal muscle).
